In US12263175B2, “Optimised dosage of diaminophenothiazines in populations” (WisTa Laboratories Ltd., priority 2018, dated 2025):

How the values were obtained:
bvFTD patients = test: Phase 3 bvFTD trial: clinical and MRI endpoints by Cmax,ss group; assay type: in vivo, human
Text: The trial design for the Phase 3 trial of LMTM in behavioural variant frontotemporal dementia (bvFTD) is described in Examples 3 to 10 of WO2018/041739, which Examples also discuss those results. The disclosure of those Examples is specifically incorporated herein by reference.
(§1) The population PK model described above was used to estimate Cmax of parent MT in the patients in the bvFTD study. As with the AD trials described above, the median value at each dose was taken as a threshold for dividing patients into “High Cmax” and “Low Cmax” groups.
However the decline in the Cmax high group was much reduced (−6.1±1.8). All efficacy analyses are based on an MMRM approach
Alternative efficacy analyses were performed in which the group of patients with minimal systemic exposure to the drug was used as a proxy for placebo. These are shown in the Table EX8 below and illustrated in FIG. 19.
In addition, a linear term was added to permit trends occurring at high concentrations to be included in the model using mean decline occurring at the 200 mg/day dose.

[1] = Population PK model estimate of steady-state parent MT Cmax in bvFTD trial patients; assay type: in vivo; settings: human, plasma, oral, 8 mg/day, read-out: Cmax,ss cut-off, upper limit of the lowest 35% group
Experimental: as §1
The cut-off that defined the upper limit of the lowest 35% group (corresponding to the percentage of patients with plasma levels below the validated limit of quantitation in Day 1) was 0.346 ng/ml for the bvFTD population.
As for AD (see Example 10) the remainder with Day 1 plasma levels within the validated range of quantitation at the 8 mg/day dose were distributed in 3 groups having approximately equal numbers (22% each; see Table EX7 below).

[2] = system: tau transgenic mouse model; test: Tau transgenic mouse model, spatial learning memory after pre-treatment with symptomatic drugs; assay type: in vivo
Text: As is evident from the foregoing, there is a reduction in the maximum effect of LMTM when it is combined with symptomatic treatments. It should be noted however, that this relates to a context in which patients have received LMTM against a background of chronic pre-treatment with symptomatic drugs. The mechanism of this has been elucidated in a series of experiments in a well characterised tau transgenic mouse model.

CN(C)c1ccc2c(c1)Sc1cc(N(C)C)ccc1N2 [LMTM, leuco-methylthioninium bis(hydromethanesulfonate)]
Lower limiting plasma concentration required for treatment response (bvFTD patients; bvFTD patients receiving 8 mg/day, expanded Hill equation): 0.29 ng/mL
Dose-response for high dose monotherapy on functional FAQ scale (bvFTD patients; bvFTD, 200 mg/day vs 8 mg/day): inverse dose-response
Predicted dose corresponding to the maximum limiting concentration (bvFTD patients; bvFTD, whole brain volume over 52 weeks): 301 mg/day
Maximum limiting concentration at which the treatment effect was lost (bvFTD patients; bvFTD, whole brain volume over 52 weeks, expanded Hill equation): 13.57 ng/mL
Cmax [1]: 0.346 ng/mL
Effect on spatial learning memory ([2]; chronic pre-treatment with rivastigmine): elimination of the beneficial effect
Effect on spatial learning memory ([2]; pre-treatment with memantine): eliminated the effect
